Laboratory results taken from paper PMC12557383, “Development of a Potent and Functional In Vivo Peptide Competitive Inhibitor for the Toxin MazF” (Journal of Medicinal Chemistry, 2025).
Positions count from the first letter of the chain named. In names and notes the source's numbering stands. Several values for one entry are separate records, joined by “and”; a condition that tells them apart may be missing. Identical values can stand only once.

T1: His^6-MazF (Escherichia coli, UniProt P0AE70)
T1 construct: made in house
T1 sequence (P0AE70 1-111): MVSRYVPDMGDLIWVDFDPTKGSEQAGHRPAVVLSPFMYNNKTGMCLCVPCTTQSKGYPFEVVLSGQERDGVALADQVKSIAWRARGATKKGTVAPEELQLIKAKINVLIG

T2: MazFE24A (Escherichia coli, UniProt P0AE70, E24A)
T2 construct: His6 (N, cleaved yes); made in house; host or cells: E. coli BL21 (DE3) RIL
T2 sequence (P0AE70 1-111 E24A): T1 sequence (P0AE70 1-111) with E24A

T3: His^6-MazF (wild-type E. coli toxin MazF) (E. coli, UniProt P0AE70 1-111)
T3 sequence: T1 sequence (P0AE70 1-111)

B1: MazE (E. coli antitoxin) (natural protein, UniProt P0AE72 1-82, looked up)
chain: MIHSSVKRWGNSPAVRIPATLMQALNLNIDDEVKIDLVDGKLIIEPVRKEPVFTLAELVNDITPENLHENIDWGEPKDKEVW
notes: also called full-length MazE; the antitoxin
B2: Small Antitoxin of MazF (SamF), synthetic peptide Ac-SHLFWAQFDEYF-NH2 (peptide)
peptide: Ac-SHLFWAQFDEYF-NH2
notes: also called synthetic SamF; the synthetic peptide; source: synthetic peptide (microwave-assisted solid phase, RP-HPLC purified)
B3: SamF D9K mutant peptide (peptide)
peptide: Ac-SHLFWAQFKEYF-NH2
notes: the substitution is still to be applied; source: synthetic peptide
B4: MazF_(E24A) (E. coli toxin MazF with glutamic acid 24 replaced with alanine, His6 tag removed) (enzyme)
chain: T1 sequence (P0AE70 1-111) with E24A
notes: For NMR the same construct was 15N or 15N/13C labelled; also called the toxin; source: E. coli BL21 (DE3) RIL, purified (Ni-NTA, TEV cleavage, second Ni-NTA, SEC); not shown: His6, N-terminal, cleaved

Assays:
[1] = CD spectroscopy, α-helix content by K2D2 deconvolution; assay type: physicochemical; conditions: 0.25 mg/mL in 10 mM NaHPO4, CD deconvolution with K2D2
Procedure: CD spectra were recorded in a Jasco 815 spectropolarimeter with a 0.25 mg/mL concentrated sample of SamF in 10 mM NaHPO4 buffer. CD spectra were recorded with 1 nm data pitch, 1 s of integration time, scanning speed of 50 nm/min, and wavelength range from 200 to 260 nm. The final spectrum is the average of eight accumulations. The peptide spectrum was subtracted from that of the buffer and smoothed by the Savitzky-Golay method.

[2] = molecular target: T1, His^6-MazF; assay: His6-MazF enzyme activity with fluorescence-suppressed chimeric DNA/RNA substrate; assay type: biochemical
Procedure: Toxin activity was assessed with a chimeric DNA/RNA substrate labeled with a fluorophore on the 5′ end and a quencher on the 3′ end (Tables S1–S13) as described. The reaction was performed in 50 mM Tris, pH 7, containing 1 mM EDTA in a 96-well plate and in a final volume of 100 μL. The buffer was initially equilibrated at 35 °C, and His^6-MazF was added to a final concentration of 0.75 μM. Inhibitors were incubated with His^6-MazF for 20 min/35 °C before the reaction was started with 0.5 μM of substrate. Fluorescence intensity was recorded every half minute for 90 min on a SpectraMax Paradigm spectrometer (Molecular Devices) at 35 °C with an excitation wavelength of 488 nm and detection at 520 nm. The fluorescence values of all reactions were subtracted from that of the negative control containing only buffer and substrate. The highest fluorescence value obtained for the reaction catalyzed by His^6-MazF was set to 1, and the fluorescence values obtained for all other reactions were normalized relative to this.
The mechanism of inhibition of the toxin by SamF was determined by measuring the initial enzyme-catalyzed ACA site hydrolysis rates (v 0) in the absence and presence of increasing concentrations of the inhibitor. The concentration of His^6-MazF was 0.75 μM. V 0 was considered as the slope of the catalytic curve (fluorescence increase per time) at the initial moments of the reaction up to a maximum of 5 min, after the addition of the substrate. The Lineweaver–Burk graph was generated by plotting the reciprocal of v 0 as a function of the reciprocal of the substrate concentration in the presence of different amounts of inhibitor.
The IC50 value for the inhibition of MazF was calculated by measuring the v 0 as described above in the presence of different concentrations of the inhibitor. The concentration of His^6-MazF was 0.75 μM, and that of the substrate was 0.5 μM.

[3] = molecular target: T2, MazFE24A; assay: Isothermal titration calorimetry (ITC), binding to MazFE24A; conditions: peptide into MazFE24A, pH about 7.10, one set of sites model
Procedure: Experiments were performed in a Malvern VP-ITC microcalorimeter with a reference offset of 15 μcal s^–1, syringe speed of 250 rpm, preinjection delay of 300 s, and a recording interval of 2 s. The thermodynamic parameters of binding were obtained by fitting the experimental thermogram (Origin 7.0 software) to the “one set of sites” model supplied by the equipment after subtracting the heat of dilution. […] Titrations of MazFE24A with SamF were carried out by 20 injections of 15 μL of SamF (225 μM) to a 28 μM MazFE24A solution contained in the calorimetric cell. Samples of MazFE24A and SamF were prepared in the same buffer with a final pH of about 7.10 (30 mM NaHPO4, 4 mM NH4HCO3, 60 mM NaCl, 0.3 mM EDTA, and 2.4 mM DTT).

[4] = Solubility of the purified peptide; assay type: physicochemical
[5] = molecular target: T2, MazFE24A; assay: Competition ligand binding by displacement ITC (MazE vs SamF); conditions: 50 μM MazE titrated into 10 μM MazFE24A with 0, 10 or 30 μM SamF
Excerpt: Raw heats were integrated and fitted by a least-squares algorithm to the “one set of sites” model to calculate thermodynamic parameters after subtracting the heat of dilution.

[6] = molecular target: T4, MazF_(E24A) (E. coli toxin MazF with glutamic acid 24 replaced with alanine, His6 tag removed) (E. coli, UniProt P0AE70 1-111, E24A); assay: ITC; in presence of 30 uM SamF
[7] = molecular target: B4; assay: ITC; MazE (50 μM) in the syringe, 20 injections of 8 μL into 10 μM MazF_(E24A) in the cell; 50 mM NaHPO4 pH 7, 100 mM NaCl, 0.5 mM EDTA, 4 mM DTT; one set of sites model; conditions: both partners purified
[8] = molecular target: T4, MazF_(E24A) (E. coli toxin MazF with …); assay: ITC
[9] = molecular target: T4, MazF_(E24A) (E. coli toxin MazF with …); assay: ITC; in presence of 10 uM SamF
[10] = molecular target: T3, His^6-MazF (wild-type E. coli toxin …); assay: cell-based or functional assay
[11] = molecular target: B4; assay: ITC; SamF (225 μM) in the syringe, 20 injections of 15 μL into 28 μM MazF_(E24A) in the cell; 30 mM NaHPO4, 4 mM NH4HCO3, 60 mM NaCl, 0.3 mM EDTA, 2.4 mM DTT, pH about 7.10; one set of sites model; average of two independent experiments; conditions: both partners purified
[12] = molecular target: B4; conditions: both partners purified
[13] = molecular target: T4, MazF_(E24A) (E. coli toxin MazF with …); assay: ITC; remark: listed apart in the source
[14] = molecular target: the molecule itself; assay: SEC-MALS; Superdex 75 10/300 GL in NMR buffer; 100 μL of 200 μM MazF_(E24A) alone or with an equimolar concentration of SamF
[15] = SamF: average of two independent experiments

Molecule: Ac-SHLFWAQFDEYF-NH2 [SamF]
- α-helix content ([1]; pH 7.0, 25 °C): 82.6%
- α-helix content ([1]; pH 7.6, 25 °C): 39.11%
- α-helix content ([1]; pH 8.0, 25 °C): 23.36%
- Mechanism of inhibition (Lineweaver–Burk) ([2]; 0.75 μM His6-MazF, increasing substrate and inhibitor concentrations, Vmax unaffected, KM enhanced): competitive inhibition
- Inhibition of His6-MazF in whole E. coli cell lysate (result in words) ([2]; in the presence of about 0.5 μg of E. coli proteins): still efficiently able to inhibit
- TΔS [3, 15]: -3.9 kcal/mol and -3.9 ± 1.9 kcal/mol
- ΔH [3, 15]: -11.8 ± 1.6 kcal/mol
- Solubility at neutral pHs (result in words) ([4]; neutral pH): low solubility
- Solubility at pHs 8–9 (result in words) ([4]; pH 8–9): highly soluble
- Competition with MazE for binding to MazF (result in words) [5]: compete for binding to MazF

Molecule: Ac-SHLFWAQFKEYF-NH2 [SamF_D9K]
- Inhibition of His6-MazF catalysis (result in words) ([2]; 0.75 μM His6-MazF, 0.5 μM substrate, 50 mM Tris pH 7, 35 °C, 20 min preincubation, fluorescence over 90 min): still able to prevent MazF catalysis
- protein:peptide complex stoichiometry (N) [3]: 1.0 ±0.1
- TΔS [3, 15]: -2.8 ± 0.9 kcal/mol

Molecule: B1
- Kd [6]: 2 nM
- dH [7]: -25.6 ± 1.7 kcal/mol
- stoichiometry N [7]: 0.5
- Kd [8]: 5 nM
- Kd [9]: 6 nM

Molecule: B2
- IC50 of inhibition of His6-MazF (0.75 μM) cleavage of a fluorescence-suppressed DNA–RNA chimeric substrate (0.5 μM) [10]: 2170 nM
- Kd [11]: 2500 ± 700 nM
- dH [11]: -11.8 kcal/mol
- stoichiometry N [11]: 1

Molecule: B3
- fold change of KD against SamF [12]: 2 fold
- Kd [13]: 6600 nM

Molecule: B4
- stoichiometry N [14]: 2
